Test results published in US11858951B2, “Boronic acid derivatives” (Merck Patent GmbH, priority 2017, dated 2024).

Experiments:
[1] = molecular target: LMP7 (purified human immuno proteasome) (Homo sapiens, UniProt P28062); assay: Determination of LMP7 activity (fluorescence intensity assay, Suc-LLVY-AMC); assay type: biochemical; conditions: for Selectivity LMP7 vs Beta5: LMP7 versus Beta5, incubation for 20 minutes; for IC50: incubation for 20 minutes at 25° C., concentrations 30 μM to 15 pM, read-out: LMP7 IC50
Description: Biological Activity Determination of LMP7 Activity:
Measurement of LMP7 inhibition is performed in 384 well format based on fluorescence intensity assay.
(§1) Purified human immuno proteasome (0.25 nM) and serial diluted compounds in DMSO (range of concentrations from 30 μM to 15 pM) or controls are incubated for 20 minutes or 120 minutes (long incubation) at 25° C. in assay buffer containing 50 mM Tris pH 7.4, 0.03% SDS, 1 mM EDTA and 1% DMSO. The reaction is initiated by the addition of the fluorogenic peptide substrate, Suc-LLVY-AMC (Bachem 1-1395), at a concentration of 40 μM. After 60 minutes of incubation at 37° C., fluorescence intensity is measured at λex=350 nm and λem=450 nm with a fluorescence reader (Perkin Elmer Envision reader or equivalent).
(§2) Unless indicated otherwise the results are obtained after incubation for 20 minutes.

[2] = molecular target: Beta5 (purified human constitutive proteasome) (Homo sapiens, UniProt P28074); assay: Determination of Beta5 activity (fluorescence intensity assay, Suc-LLVY-AMC); assay type: biochemical; conditions: incubation for 20 minutes at 25° C.; concentrations 30 μM to 15 pM; read-out: Beta5 IC50
Description: Determination of Beta5 Activity:
Measurement of Beta5 inhibition is performed in 384 well format based on fluorescence intensity assay.
as §1, with “constitutive” for “immuno”, “(1.25” for “(0.25”
as §2

Compound | Selectivity LMP7 vs Beta5 [1] | IC50 [1] [µM] | IC50 [2] [µM]
O=C(N[C@@H](Cc1coc2ccccc12)B(O)O)[C@@H]1C[C@H]2CC[C@@H]1O2 [Compound No. 9, [(1R)-2-(1-benzofuran-3-yl)-1-{[(1S,2R,4R)-7-oxabicyclo[2.2.1]heptan-2-yl]formamido}ethyl]boronic acid] | +++++ (Selectivity ≥700) | < 0.05 | 0.5 to 5
O=C(N[C@@H](Cc1coc2c(Cl)cccc12)B(O)O)[C@@H]1C[C@H]2CC[C@@H]1O2 [Compound No. 13, [(1R)-2-(7-chloro-1-benzofuran-3-yl)-1-{[(1S,2R,4R)-7-oxabicyclo[2.2.1]heptan-2-yl]formamido}ethyl]boronic acid] | +++++ (Selectivity ≥700) | < 0.05 | 0.5 to 5
O=C(N[C@@H](Cc1ccsc1)B(O)O)[C@@H]1C[C@H]2CC[C@@H]1O2 [compound 3, [(1R)-1-{[(1S,2R,4R)-7-oxabicyclo[2.2.1]heptan-2-yl]formamido}-2-(thiophen-3-yl)ethyl]boronic acid] | – | 0.5 to 5 | > 30
O=C(N[C@@H](Cc1coc2ccccc12)B(O)O)[C@H]1C[C@@H]2CC[C@H]1O2 [compound 8, [(1R)-2-(1-benzofuran-3-yl)-1-{[(1R,2S,4S)-7-oxabicyclo[2.2.1]heptan-2-yl]formamido}ethyl]boronic acid] | ++++ (500 ≤ Selectivity < 700) | < 0.05 | 5 to 30
O=C(N[C@@H](Cc1coc2c(Cl)cccc12)B(O)O)[C@H]1C[C@@H]2CC[C@H]1O2 [compound 12, [(1R)-2-(7-chloro-1-benzofuran-3-yl)-1-{[(1R,2S,4S)-7-oxabicyclo[2.2.1]heptan-2-yl]formamido}ethyl]boronic acid] | +++++ (Selectivity ≥700) | < 0.05 | 5 to 30
O=C(N[C@@H](C[C@@H]1COc2ccccc21)B(O)O)[C@]12CC[C@H](O1)c1ccccc12 [compound 16, [(1R)-2-[(3S)-2,3-dihydro-1-benzofuran-3-yl]-1-{[(1R,8S)-11-oxatricyclo[6.2.1.0^2,7]undeca-2(7),3,5-trien-1-yl]formamido}ethyl]boronic acid] | +++++ (Selectivity ≥700) | < 0.05 | 5 to 30

The next lines start with the values.

Selectivity LMP7 vs Beta5 [1] | IC50 [1] [µM] | IC50 [2] [µM] | Compound
+++++ (Selectivity ≥700) | < 0.05 | 5 to 30 | O=C(N[C@@H](C[C@@H]1COc2ccccc21)B(O)O)[C@@H]1C[C@H]2CC[C@@H]1O2 [Compound No. 1, [(1R)-2-[(3S)-2,3-dihydro-1-benzofuran-3-yl]-1-{[(1S,2R,4R)-7-oxabicyclo[2.2.1]heptan-2-yl]formamido}ethyl]boronic acid]
+++ (300 ≤ Selectivity < 500) | 0.05 to 0.5 | 5 to 30 | O=C(N[C@@H](C[C@@H]1COc2ccccc21)B(O)O)[C@H]1C[C@@H]2CC[C@H]1O2 [compound 2, [(1R)-2-[(3S)-2,3-dihydro-1-benzofuran-3-yl]-1-{[(1R,2S,4S)-7-oxabicyclo[2.2.1]heptan-2-yl]formamido}ethyl]boronic acid]
– | 0.5 to 5 | > 30 | Cc1cccc2c1OC[C@@H]2C[C@H](NC(=O)[C@@H]1C[C@H]2CC[C@@H]1O2)B(O)O [compound 14, [(1R)-2-[(3R)-7-methyl-2,3-dihydro-1-benzofuran-3-yl]-1-{[(1S,2R,4R)-7-oxabicyclo[2.2.1]heptan-2-yl]formamido}ethyl]boronic acid]
+++++ (Selectivity ≥700) | < 0.05 | 5 to 30 | Cc1cccc2c1OC[C@H]2C[C@H](NC(=O)[C@@H]1C[C@H]2CC[C@@H]1O2)B(O)O [compound 15, [(1R)-2-[(3S)-7-methyl-2,3-dihydro-1-benzofuran-3-yl]-1-{[(1S,2R,4R)-7-oxabicyclo[2.2.1]heptan-2-yl]formamido}ethyl]boronic acid]
